Source: ChEMBL document CHEMBL3991601, “The target landscape of clinical kinase drugs” (Science, 2017)
Active and inactive are the calls of the source.

Legend:
[1] = target: T1, Peroxisomal acyl-coenzyme A oxidase 3 (Homo sapiens, UniProt O15254)
T1 sequence (O15254 whole entry): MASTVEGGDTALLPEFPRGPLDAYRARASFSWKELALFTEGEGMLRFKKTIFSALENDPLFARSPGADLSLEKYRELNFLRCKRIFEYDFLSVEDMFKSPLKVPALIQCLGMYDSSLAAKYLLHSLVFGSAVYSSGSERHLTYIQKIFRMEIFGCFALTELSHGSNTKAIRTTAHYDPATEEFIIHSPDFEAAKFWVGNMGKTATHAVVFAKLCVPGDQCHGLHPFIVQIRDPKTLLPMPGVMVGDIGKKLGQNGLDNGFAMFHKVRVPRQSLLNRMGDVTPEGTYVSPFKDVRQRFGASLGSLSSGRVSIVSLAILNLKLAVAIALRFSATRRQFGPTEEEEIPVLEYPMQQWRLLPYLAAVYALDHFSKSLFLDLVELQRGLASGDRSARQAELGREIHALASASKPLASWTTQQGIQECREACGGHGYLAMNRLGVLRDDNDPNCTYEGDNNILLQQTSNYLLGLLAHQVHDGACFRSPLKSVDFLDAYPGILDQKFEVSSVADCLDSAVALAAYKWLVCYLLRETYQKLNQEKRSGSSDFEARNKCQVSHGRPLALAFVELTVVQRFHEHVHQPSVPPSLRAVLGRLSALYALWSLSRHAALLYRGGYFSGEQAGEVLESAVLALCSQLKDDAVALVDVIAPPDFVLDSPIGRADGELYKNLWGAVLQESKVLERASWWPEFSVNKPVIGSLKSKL

[2] = target: T2, Serine/threonine-protein kinase A-Raf (Homo sapiens, UniProt P10398)
T2 sequence (P10398 whole entry): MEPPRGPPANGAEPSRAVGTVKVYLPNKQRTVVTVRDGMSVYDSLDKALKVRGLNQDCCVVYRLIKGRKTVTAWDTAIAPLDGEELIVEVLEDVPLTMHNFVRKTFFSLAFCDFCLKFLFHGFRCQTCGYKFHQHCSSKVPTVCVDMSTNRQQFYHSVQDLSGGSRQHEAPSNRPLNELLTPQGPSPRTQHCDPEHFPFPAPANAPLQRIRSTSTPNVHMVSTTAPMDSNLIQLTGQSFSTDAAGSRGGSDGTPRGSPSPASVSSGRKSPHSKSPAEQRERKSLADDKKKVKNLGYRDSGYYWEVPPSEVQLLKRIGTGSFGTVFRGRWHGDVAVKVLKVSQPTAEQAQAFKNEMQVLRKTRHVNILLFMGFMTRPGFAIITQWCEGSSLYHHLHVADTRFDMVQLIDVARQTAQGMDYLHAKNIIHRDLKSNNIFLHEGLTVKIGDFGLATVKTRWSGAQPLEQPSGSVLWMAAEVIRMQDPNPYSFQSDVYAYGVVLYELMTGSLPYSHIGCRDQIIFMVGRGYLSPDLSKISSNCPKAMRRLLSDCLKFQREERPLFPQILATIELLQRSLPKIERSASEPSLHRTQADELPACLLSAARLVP

[3] = target: ATP-dependent RNA helicase DDX3X (Homo sapiens, UniProt O00571)
Chain of ATP-dependent RNA helicase DDX3X (O00571 whole entry): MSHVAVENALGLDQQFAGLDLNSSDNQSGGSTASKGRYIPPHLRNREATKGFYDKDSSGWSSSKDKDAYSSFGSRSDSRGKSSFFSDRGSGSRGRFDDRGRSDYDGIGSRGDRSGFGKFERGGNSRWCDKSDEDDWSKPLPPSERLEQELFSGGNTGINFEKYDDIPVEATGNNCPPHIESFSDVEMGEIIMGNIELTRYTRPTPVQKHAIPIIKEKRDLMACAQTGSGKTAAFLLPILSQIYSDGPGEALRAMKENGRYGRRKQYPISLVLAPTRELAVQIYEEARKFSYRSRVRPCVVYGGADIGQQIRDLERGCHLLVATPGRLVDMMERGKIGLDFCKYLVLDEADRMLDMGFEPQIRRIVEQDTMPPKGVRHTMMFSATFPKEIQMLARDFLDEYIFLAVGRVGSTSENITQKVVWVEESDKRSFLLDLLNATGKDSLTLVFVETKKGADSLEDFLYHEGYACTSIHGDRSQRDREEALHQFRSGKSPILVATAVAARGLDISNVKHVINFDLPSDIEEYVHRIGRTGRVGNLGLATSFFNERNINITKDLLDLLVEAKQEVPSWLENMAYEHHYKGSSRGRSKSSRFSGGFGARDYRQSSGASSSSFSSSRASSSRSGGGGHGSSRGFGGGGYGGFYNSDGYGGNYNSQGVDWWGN

Heme oxygenase 2 = target: T3, Heme oxygenase 2 (Homo sapiens, UniProt P30519)
T3 sequence (P30519 whole entry): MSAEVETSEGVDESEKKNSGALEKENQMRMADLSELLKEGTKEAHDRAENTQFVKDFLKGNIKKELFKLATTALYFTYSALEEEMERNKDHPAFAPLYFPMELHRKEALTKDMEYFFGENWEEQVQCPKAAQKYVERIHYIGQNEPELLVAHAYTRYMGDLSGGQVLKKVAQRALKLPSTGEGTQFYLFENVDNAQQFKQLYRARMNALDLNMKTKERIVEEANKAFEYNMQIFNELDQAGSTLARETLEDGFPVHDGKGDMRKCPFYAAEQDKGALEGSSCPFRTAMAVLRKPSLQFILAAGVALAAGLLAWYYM

Midasin = Midasin (Homo sapiens, UniProt Q9NU22)
[4] = target: Receptor-interacting serine/threonine-protein kinase 3 (Homo sapiens, UniProt Q9Y572)
Chain of Receptor-interacting serine/threonine-protein kinase 3 (Q9Y572 whole entry): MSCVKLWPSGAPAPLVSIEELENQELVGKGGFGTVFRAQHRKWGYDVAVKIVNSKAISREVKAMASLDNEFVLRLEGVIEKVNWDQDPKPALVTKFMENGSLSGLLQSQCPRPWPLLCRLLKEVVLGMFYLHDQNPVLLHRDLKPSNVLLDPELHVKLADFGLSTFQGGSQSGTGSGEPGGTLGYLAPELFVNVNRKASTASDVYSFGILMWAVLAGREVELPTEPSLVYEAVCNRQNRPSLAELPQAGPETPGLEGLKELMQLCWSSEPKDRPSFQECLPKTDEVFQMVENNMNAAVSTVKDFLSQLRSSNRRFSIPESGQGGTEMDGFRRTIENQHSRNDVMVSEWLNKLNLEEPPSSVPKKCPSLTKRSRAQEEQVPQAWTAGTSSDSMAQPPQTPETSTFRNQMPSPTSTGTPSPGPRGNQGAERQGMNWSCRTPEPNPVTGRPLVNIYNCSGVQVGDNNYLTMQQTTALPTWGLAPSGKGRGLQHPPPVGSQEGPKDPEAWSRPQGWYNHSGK

[5] = target: T4, ATP-dependent RNA helicase DDX42 (Homo sapiens, UniProt Q86XP3)
T4 sequence (Q86XP3 whole entry): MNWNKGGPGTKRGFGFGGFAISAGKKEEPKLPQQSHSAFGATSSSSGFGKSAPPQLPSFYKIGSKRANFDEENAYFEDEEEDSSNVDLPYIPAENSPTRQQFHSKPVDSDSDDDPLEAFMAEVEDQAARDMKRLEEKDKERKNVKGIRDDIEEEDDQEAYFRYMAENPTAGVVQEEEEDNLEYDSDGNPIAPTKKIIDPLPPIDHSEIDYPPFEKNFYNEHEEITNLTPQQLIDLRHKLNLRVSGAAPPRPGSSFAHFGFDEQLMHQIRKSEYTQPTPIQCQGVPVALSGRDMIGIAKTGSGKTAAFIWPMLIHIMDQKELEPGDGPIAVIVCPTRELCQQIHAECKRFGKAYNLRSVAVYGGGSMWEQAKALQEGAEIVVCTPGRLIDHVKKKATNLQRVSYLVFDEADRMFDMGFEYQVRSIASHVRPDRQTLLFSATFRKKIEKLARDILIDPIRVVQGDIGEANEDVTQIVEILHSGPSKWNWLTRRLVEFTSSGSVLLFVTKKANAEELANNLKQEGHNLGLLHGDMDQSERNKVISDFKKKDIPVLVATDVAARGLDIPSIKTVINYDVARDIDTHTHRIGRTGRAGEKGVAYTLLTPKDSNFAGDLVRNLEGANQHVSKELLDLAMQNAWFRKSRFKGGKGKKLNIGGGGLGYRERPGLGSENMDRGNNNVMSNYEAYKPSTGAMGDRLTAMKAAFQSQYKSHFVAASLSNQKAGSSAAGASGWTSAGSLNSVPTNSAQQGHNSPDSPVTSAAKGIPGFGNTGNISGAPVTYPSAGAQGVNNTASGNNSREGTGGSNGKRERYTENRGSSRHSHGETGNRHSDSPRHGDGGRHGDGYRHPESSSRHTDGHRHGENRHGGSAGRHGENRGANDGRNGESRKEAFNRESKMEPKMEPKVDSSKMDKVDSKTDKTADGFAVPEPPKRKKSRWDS

[6] = target: Tyrosine-protein kinase JAK1 (Homo sapiens, UniProt P23458)
Chain of Tyrosine-protein kinase JAK1 (P23458 whole entry): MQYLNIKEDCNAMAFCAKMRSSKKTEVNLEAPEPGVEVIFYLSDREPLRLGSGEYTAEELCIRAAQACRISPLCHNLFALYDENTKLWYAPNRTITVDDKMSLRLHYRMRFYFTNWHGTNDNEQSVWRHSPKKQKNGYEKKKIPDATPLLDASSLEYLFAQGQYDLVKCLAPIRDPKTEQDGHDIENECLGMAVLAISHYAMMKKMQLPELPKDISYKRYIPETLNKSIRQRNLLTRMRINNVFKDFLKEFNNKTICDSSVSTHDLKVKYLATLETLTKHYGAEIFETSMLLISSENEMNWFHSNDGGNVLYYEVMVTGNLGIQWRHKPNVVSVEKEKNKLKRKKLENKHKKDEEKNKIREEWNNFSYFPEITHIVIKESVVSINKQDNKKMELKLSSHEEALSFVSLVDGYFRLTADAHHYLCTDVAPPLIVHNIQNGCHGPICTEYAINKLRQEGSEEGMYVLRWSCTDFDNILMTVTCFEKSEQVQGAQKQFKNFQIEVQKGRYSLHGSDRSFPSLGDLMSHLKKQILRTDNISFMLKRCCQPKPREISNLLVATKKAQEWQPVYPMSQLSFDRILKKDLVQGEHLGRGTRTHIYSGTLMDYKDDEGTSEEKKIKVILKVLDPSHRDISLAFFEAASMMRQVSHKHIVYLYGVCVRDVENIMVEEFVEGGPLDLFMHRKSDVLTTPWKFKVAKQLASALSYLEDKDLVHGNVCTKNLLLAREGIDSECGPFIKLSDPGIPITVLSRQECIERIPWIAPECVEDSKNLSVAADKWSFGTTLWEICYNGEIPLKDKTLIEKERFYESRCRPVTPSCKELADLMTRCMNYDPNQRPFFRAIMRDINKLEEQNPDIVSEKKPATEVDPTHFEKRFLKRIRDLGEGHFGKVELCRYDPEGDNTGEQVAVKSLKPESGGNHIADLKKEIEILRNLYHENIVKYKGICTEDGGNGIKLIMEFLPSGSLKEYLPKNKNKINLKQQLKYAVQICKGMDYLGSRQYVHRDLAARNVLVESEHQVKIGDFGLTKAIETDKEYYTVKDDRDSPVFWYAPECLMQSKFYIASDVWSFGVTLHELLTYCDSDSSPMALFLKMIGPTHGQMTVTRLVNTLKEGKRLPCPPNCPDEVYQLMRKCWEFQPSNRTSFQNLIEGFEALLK

[7] = target: MAP/microtubule affinity-regulating kinase 3 (Homo sapiens, UniProt P27448)
Chain of MAP/microtubule affinity-regulating kinase 3 (P27448 whole entry): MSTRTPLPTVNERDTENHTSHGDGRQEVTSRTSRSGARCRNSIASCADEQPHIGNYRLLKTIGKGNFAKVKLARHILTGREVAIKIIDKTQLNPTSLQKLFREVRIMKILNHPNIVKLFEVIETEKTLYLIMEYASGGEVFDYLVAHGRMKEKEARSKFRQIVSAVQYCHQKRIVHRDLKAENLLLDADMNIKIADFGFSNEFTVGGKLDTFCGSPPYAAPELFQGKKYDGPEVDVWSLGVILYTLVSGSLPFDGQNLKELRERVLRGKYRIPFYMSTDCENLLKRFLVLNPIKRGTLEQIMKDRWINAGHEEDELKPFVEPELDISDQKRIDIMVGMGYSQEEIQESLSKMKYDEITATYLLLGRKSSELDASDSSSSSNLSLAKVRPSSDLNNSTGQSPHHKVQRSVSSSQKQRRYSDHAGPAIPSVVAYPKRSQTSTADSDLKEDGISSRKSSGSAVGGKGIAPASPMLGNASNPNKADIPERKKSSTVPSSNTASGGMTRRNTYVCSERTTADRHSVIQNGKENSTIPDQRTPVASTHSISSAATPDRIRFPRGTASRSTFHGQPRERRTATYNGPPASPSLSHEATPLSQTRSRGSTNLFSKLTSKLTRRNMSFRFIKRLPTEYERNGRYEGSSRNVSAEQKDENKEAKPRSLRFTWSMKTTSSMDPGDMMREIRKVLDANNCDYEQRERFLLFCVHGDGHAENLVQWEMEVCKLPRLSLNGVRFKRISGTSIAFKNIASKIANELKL

[8] = target: Proto-oncogene tyrosine-protein kinase Src (Homo sapiens, UniProt P12931)
Chain of Proto-oncogene tyrosine-protein kinase Src (P12931 2-536 limits assumed): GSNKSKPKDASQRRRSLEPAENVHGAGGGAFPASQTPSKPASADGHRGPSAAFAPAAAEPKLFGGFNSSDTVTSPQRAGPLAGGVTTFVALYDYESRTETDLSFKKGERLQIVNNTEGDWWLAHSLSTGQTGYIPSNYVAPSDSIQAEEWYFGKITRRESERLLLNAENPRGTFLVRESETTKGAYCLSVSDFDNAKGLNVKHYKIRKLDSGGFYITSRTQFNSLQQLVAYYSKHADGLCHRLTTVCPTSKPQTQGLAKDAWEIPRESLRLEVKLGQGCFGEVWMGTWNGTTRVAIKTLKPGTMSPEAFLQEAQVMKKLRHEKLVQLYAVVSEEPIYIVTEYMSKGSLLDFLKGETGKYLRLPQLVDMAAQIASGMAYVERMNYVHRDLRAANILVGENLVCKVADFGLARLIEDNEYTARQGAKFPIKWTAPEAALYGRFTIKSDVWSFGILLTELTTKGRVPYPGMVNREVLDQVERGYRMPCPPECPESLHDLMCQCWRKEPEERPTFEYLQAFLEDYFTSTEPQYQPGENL

[9] = target: Fibroblast growth factor receptor 1 (Homo sapiens, UniProt P11362)
Chain of Fibroblast growth factor receptor 1 (P11362 whole entry): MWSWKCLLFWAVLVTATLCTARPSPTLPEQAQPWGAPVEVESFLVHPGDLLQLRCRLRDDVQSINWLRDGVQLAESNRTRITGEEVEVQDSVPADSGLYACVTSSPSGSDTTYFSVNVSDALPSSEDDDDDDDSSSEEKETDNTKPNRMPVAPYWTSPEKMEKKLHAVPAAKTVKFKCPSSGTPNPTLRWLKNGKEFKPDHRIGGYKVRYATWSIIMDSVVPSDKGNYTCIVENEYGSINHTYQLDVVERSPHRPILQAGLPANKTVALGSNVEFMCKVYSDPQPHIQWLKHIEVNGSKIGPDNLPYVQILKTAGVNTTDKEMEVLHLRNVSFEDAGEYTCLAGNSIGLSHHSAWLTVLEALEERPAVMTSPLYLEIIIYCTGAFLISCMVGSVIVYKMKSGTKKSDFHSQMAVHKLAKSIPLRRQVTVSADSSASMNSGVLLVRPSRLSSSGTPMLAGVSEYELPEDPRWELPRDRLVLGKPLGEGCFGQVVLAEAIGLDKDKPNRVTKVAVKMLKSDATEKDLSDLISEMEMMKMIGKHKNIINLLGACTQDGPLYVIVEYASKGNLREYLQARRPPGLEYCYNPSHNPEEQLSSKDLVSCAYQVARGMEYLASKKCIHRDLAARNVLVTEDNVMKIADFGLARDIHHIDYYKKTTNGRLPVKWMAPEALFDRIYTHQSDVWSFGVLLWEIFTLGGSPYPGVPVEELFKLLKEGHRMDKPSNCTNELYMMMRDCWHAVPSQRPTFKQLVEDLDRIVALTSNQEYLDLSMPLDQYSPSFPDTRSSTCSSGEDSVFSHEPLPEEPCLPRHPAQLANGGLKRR
Note: in the data inactive means no Kd found up to 30 µM.

| SMILES | Kd [1] | Kd [2] | Kd [3] | Kd (Heme oxygenase 2) | Kd (Midasin) | Kd [4] | Kd [5] | Kd [6] | Kd [7] | Kd [8] | Kd [9] |
| --- | --- | --- | --- | --- | --- | --- | --- | --- | --- | --- | --- |
| Cc1cn(-c2cc(NC(=O)c3ccc(C)c(Nc4nccc(-c5cccnc5)n4)c3)cc(C(F)(F)F)c2)cn1 [NILOTINIB] | > 30 µM (inactive) | > 30 µM (inactive) | > 30 µM (inactive) | > 30 µM (inactive) | > 30 µM (inactive) | 1.27 µM (active) |  |  |  |  |  |
| OCCn1cc(-c2cnc3nnn(Cc4ccc5ncccc5c4)c3n2)cn1 [PF-04217903] | > 30 µM (inactive) | > 30 µM (inactive) | > 30 µM (inactive) | > 30 µM (inactive) | > 30 µM (inactive) | > 30 µM (inactive) | > 30 µM (inactive) | > 30 µM (inactive) | > 30 µM (inactive) | > 30 µM (inactive) |  |
| CCc1cnn2c(NCc3ccc[n+]([O-])c3)cc(N3CCCC[C@H]3CCO)nc12 [DINACICLIB] | > 30 µM (inactive) | > 30 µM (inactive) | > 30 µM (inactive) | > 30 µM (inactive) | > 30 µM (inactive) | > 30 µM (inactive) | > 30 µM (inactive) | > 30 µM (inactive) | > 30 µM (inactive) | > 30 µM (inactive) |  |
| O=C(Nc1cccc(Cl)c1)Nc1ncc(CCNc2ncnc3ccsc23)s1 [SNS-314] | 0.026 µM (active) | > 30 µM (inactive) | > 30 µM (inactive) | > 30 µM (inactive) | > 30 µM (inactive) | > 30 µM (inactive) | > 30 µM (inactive) | > 30 µM (inactive) |  |  |  |
| CN1CCN(c2ccc3nc(-c4c(N)c5c(F)cccc5[nH]c4=O)[nH]c3c2)CC1 [DOVITINIB] | > 30 µM (inactive) | > 30 µM (inactive) | > 30 µM (inactive) | > 30 µM (inactive) | > 30 µM (inactive) | > 30 µM (inactive) |  |  |  |  |  |
| COc1cc2nccc(Oc3ccc(NC(=O)NC4CC4)c(Cl)c3)c2cc1C(N)=O [LENVATINIB] | > 30 µM (inactive) | > 30 µM (inactive) | > 30 µM (inactive) | > 30 µM (inactive) | > 30 µM (inactive) | 0.316 µM (active) | > 30 µM (inactive) | > 30 µM (inactive) | > 30 µM (inactive) |  | > 30 µM (inactive) |
| CNC(=O)c1cc(Oc2ccc(NC(=O)Nc3ccc(Cl)c(C(F)(F)F)c3)c(F)c2)ccn1 [REGORAFENIB] | > 30 µM (inactive) | > 30 µM (inactive) | > 30 µM (inactive) | > 30 µM (inactive) | > 30 µM (inactive) | 0.368 µM (active) | > 30 µM (inactive) | > 30 µM (inactive) | > 30 µM (inactive) | > 30 µM (inactive) |  |
| Nc1nc(N)c2nc(-c3cccc(O)c3)c(-c3cccc(O)c3)nc2n1 [TG100-115] | > 30 µM (inactive) | > 30 µM (inactive) | > 30 µM (inactive) | > 30 µM (inactive) | > 30 µM (inactive) | 3.67 µM | > 30 µM (inactive) |  |  |  |  |
| COc1cc2nccc(Oc3ccc(NC(=O)Nc4cc(C)on4)c(Cl)c3)c2cc1OC [TIVOZANIB] | > 30 µM (inactive) |  | > 30 µM (inactive) | > 30 µM (inactive) | > 30 µM (inactive) | 1.35 µM (active) | > 30 µM (inactive) | > 30 µM (inactive) | > 30 µM (inactive) |  |  |
| COCCNCc1ccc(-c2cc3nccc(Oc4ccc(NC(=S)NC(=O)Cc5ccc(F)cc5)cc4F)c3s2)nc1 [GLESATINIB] | > 30 µM (inactive) | > 30 µM (inactive) | > 30 µM (inactive) | > 30 µM (inactive) | > 30 µM (inactive) | > 30 µM (inactive) | > 30 µM (inactive) | > 30 µM (inactive) | > 30 µM (inactive) |  | > 30 µM (inactive) |

The next lines start with the values.

| Kd [1] | Kd [2] | Kd [3] | Kd (Heme oxygenase 2) | Kd (Midasin) | Kd [4] | Kd [5] | Kd [6] | Kd [7] | Kd [8] | Kd [9] | SMILES |
| --- | --- | --- | --- | --- | --- | --- | --- | --- | --- | --- | --- |
| > 30 µM (inactive) | > 30 µM (inactive) | > 30 µM (inactive) | > 30 µM (inactive) | > 30 µM (inactive) | 4.82 µM (active) | > 30 µM (inactive) | 5.39 µM (active) |  |  |  | Cc1nc(N)sc1-c1ccnc(Nc2ccc(N3CCOCC3)cc2)n1 [CYC-116] |
| > 30 µM (inactive) | > 30 µM (inactive) | > 30 µM (inactive) | > 30 µM (inactive) | > 30 µM (inactive) | > 30 µM (inactive) | > 30 µM (inactive) | > 30 µM (inactive) |  |  |  | Cc1cc(Nc2cc(N3CCN(C)CC3)nc(/C=C/c3ccccc3)n2)n[nH]1 [ENMD-2076] |
| > 30 µM (inactive) | > 30 µM (inactive) | > 30 µM (inactive) | > 30 µM (inactive) |  | > 30 µM (inactive) |  | > 30 µM (inactive) | > 30 µM (inactive) | > 30 µM (inactive) | > 30 µM (inactive) | O=C1NC(=O)/C(=C/c2ccc3nccc(-c4ccncc4)c3c2)S1 [GSK-1059615] |
| > 30 µM (inactive) | > 30 µM (inactive) | > 30 µM (inactive) | > 30 µM (inactive) | > 30 µM (inactive) | > 30 µM (inactive) |  | > 30 µM (inactive) | 9.02 µM (active) | > 30 µM (inactive) |  | COc1cc(CCc2cc(NC(=O)c3ccc(N4C[C@@H](C)N[C@@H](C)C4)cc3)n[nH]2)cc(OC)c1 [AZD-4547] |
| > 30 µM (inactive) | > 30 µM (inactive) | > 30 µM (inactive) | > 30 µM (inactive) | > 30 µM (inactive) | > 30 µM (inactive) | > 30 µM (inactive) |  |  |  |  | CCn1c(-c2nonc2N)nc2c(C#CC(C)(C)O)ncc(OC[C@H]3CCCNC3)c21 [GSK-690693] |
